Source: patent US12070505B2, “Targeted peptide-drug conjugates” (priority 2021, dated 2024)

System: MDA-231WT cells
Assay: LC50 by CCK-8 assay, wild-type cells
Assay type: cell-based
Conditions: MDA-231WT (wild type); FIG. 10: after 72 h
Description: Dox-resistant Cell Lines. Acquired resistance to Dox was induced in wild-type triple-negative breast cancer cell line MDA-MB-231 (MDA-231WT) as described before (Aliabadi, H. M.; et al. J. Control. Release 172:219-228, 2013, which is incorporated herein by reference). Briefly, MDA-231WT cells were exposed to Dox at an initial concentration of 0.05 μg/mL for one week or three consecutive expansions (whichever came later). […] Resistance induction was confirmed via calculation of LC50 following a sigmoidal effect model explained elsewhere (Bousoik, E.; et al. Front. Oncol. 9:1070, 2019, which is incorporated herein by reference) and determination of P-glycoprotein (P-gp) expression.
The cytotoxicity of the peptide-Dox conjugate in resistant triple-negative breast cancer and uterine sarcoma cell lines (MDA-231R, MDA-231WT, and MES-SA/MX2) was evaluated by a Cell Counting 8 (CCK8) KIT. The peptide-Dox conjugate was added to the cells in triplicate with different concentrations (0-40 μM). Cells were incubated at 37° C. and 5% CO2 for 24 h. After this incubation period, 10 μL of CCK8 reagent was added to each well, and plates were incubated at the same conditions for 2 h. The absorbance of each well was determined at 450 nm using the SpectraMAX M5 microplate reader. After subtracting the signal from blank wells that contain medium without cells in the plate with CCK-8 solution added, the results were normalized to cells treated with normal saline (considered as 100%)
Efficiency in Dox-Resistant Cells. In order to compare the cytotoxic effect of free and peptide-conjugated Dox in Dox-resistant cells, MDA-231WT (as a Dox-sensitive cell line as control) and MDA-231R and MES-SA/MX2 cells as Dox-resistant cells were exposed to a wide range of Dox (or Dox-equivalent for the peptide-conjugated drug) concentrations (0.05-40 μM). Cells were seeded in 96-well plates with approximately 50% confluency and were incubated for 24 h in 37° C. and 5% CO2. […] The cell viability was determined after this incubation period using the CCK-8 assay, as explained above. […]

## COc1cccc2c1C(=O)c1c(O)c3c(c(O)c1C2=O)C[C@@](O)(C(=O)CO)C[C@@H]3O[C@H]1C[C@H](N)[C@H](O)[C@H](C)O1 [Dox, doxorubicin, reference compound]
  CC50: 450 nM
